What was measured:
tumor cells = conditions: Son and Huang 1994; cited from earlier work
MCA 207 tumor [1] = test: Tumor growth, combination with pINEX-IL-12 in INEX 324; type: in vivo, C57 BL/6 mice; conditions: subtherapeutic vincristine (OncoTCS 0.5 mg/kg i.v.) then INEX 324 pINEX-IL-12 100 μg DNA i.v.
Experimental: C57 BL/6 mice are seeded subcutaneously with MCA 207 tumor cells. Tumor seeding is performed by standard techniques. Mice were seeded subcutaneously on the hip flank with 100,000 MCA-207 fibrosarcoma tumor cells by sub-cutaneous injection on day zero.
On days 7-10, when tumors had developed to useable sizes, mice were injected i.v. via tail vein with approximately 0.5 mg/kg of OncoTCS ([…]).
At 8, 16, 24, 30, 36, 42 or […] after OncoTCS treatment, the mice were injected i.v. via tail vein with INEX 324 (100 μg DNA pINEX-IL-12 with about 500 μg lipid all in about 200 μL total volume). Control mice received HBS.

MCA 207 tumor [2] = test: Tumor growth, combination with INEX 303 pINEX-TK10 and ganciclovir; type: in vivo, C57 BL/6 mice; conditions: OncoTCS 0.5 mg/kg i.v. then INEX 303 pINEX-TK10 i.v. and ganciclovir i.p.
Experimental: C57 BL/6 mice are seeded subcutaneously with MCA 207 tumor cells. Tumor seeding is performed by standard techniques. Mice are seeded subcutaneously on the hip flank with 100,000 MCA-207 fibrosarcoma tumor cells by […] injection on day zero. The tumor cells are cultivated and prepared according to standard techniques using RPMI media with 10% Fetal Bovine Serum (see, for example, Current Protocols in Molecular Biology, Eds. Ausubel, F. M., et al.)
At 8, 16, 24, 30, 36, 42 or […] after OncoTCS treatment, the mice are injected i.v. via tail vein with INEX 303 containing pINEX-TK10 prepared as described herein (100 μg DNA with about 500 μg lipid all in about 200 μL total volume). Control mice receive HBS.
1 mg ganciclovir, which is in 200 μL PBS (approximately 50 mg/kg; commercially available from Hoffman La Roche) is administered by intraperitoneal injection 12 h and 24 h after SPLP administration.

SK-OV-3 cells [3] = test: Lipid mediated transfection (lipoplexes or SPLPs), luciferase activity; type: cell-based, human; conditions: for increase in luciferase expression, (+/−) vs (−/−) culture: peak; for difference in luciferase activity between (−/−) and (+/+) cultures: 26 hrs
Experimental: Lipoplexes were prepared as follows: All reagents were sterile and cooled to 4° C. prior to complex preparation. A solution containing 62 μM dioleoyldimethylammonium chloride: 1,2-sn-dioleoylphosphatidylethanolamine (DODAC:DOPE) large unilamellar vesicles (LUVs) and a solution containing 10 μg/mL plasmid DNA were prepared in distilled water. The DNA was added to an equal volume of lipid dropwise, while vortexing. The solution was incubated on ice for 30 minutes prior to transfection. The resulting lipoplexes contained a final DNA concentration of 0.5 μg/100 μL and the cationic lipid:DNA (+:−) charge ratio was 1:1.
Plasmid containing a therapeutic gene was encapsulated as SPLP using the detergent dialysis method of INEX 351. The SPLP contained 42.5:42.5:15 mol % of DOPE:DODAC:1-O-[2′-(w-methoxypolyethyleneglycol) succinoyl]-2-N-octoylsphingosine, (PEG-CerC8), at a lipid:DNA ratio of 15:1 (w/w). SPLPs were separated from empty liposomes by centrifugation through a discontinuous sucrose gradient.
(§1) SK-OV-3 or HeLa-luc cells were seeded at a density of 30,000 cells per well in a 24 well plate in growth media 24 hours prior to treatment with aphidicolin. Aphidicolin (Sigma) was reconstituted in phosphate buffered saline containing 0.5% DMSO. Cells were incubated with aphidicolin at a final concentration of 5 μg/mL in 1 mL of media per well for 16 hours prior to transfection. Transfection was accomplished by the addition of 0.5 μg of formulated DNA to each well.
Luciferase assays were performed using the Luciferase Assay System kit (Promega, Madison, Wis.) according to the manufacturer's protocol. Cell samples were washed twice with PBS, lysed by incubation with 200 μL of lysis buffer (0.1% triton in 250 mM NaH2PO4, pH 7.4) for 20 min. 20 μL of cell lysate was assayed (in duplicate) using a mL3000 microtiter plate luminometer (Dynex Technologies). A standard curve was determined by assaying 20 μL of serial dilutions of a 1 mg/mL luciferase standard (Boehringer Mannheim). Cell lysate was assayed for protein content using the bicinchoninic acid (BCA) colorimetric method. Briefly, in a 96 well plate, 95 μL of water and 100 μL of the Micro BCA protein assay working reagent (Pierce) were added to 5 μL of cell lysate. The plates were shaken on a rotary platform at 100 rpm for 10 minutes before being incubated at 37° C. for 2 hours. Absorbance was monitored at 570 nm (Dynatech MR5000 plate reader) and protein content calculated using a standard curve of varying concentrations of BSA.

SK-OV-3 cells [4] = test: Cell cycle status by propidium iodide flow cytometry; type: cell-based, human
Experimental: as §1
The cell cycle status of cultures was determined by flow cytometry of permeabilized cells that were stained with propidium iodide. Prior to harvesting, media was aspirated and the cells were washed twice with 2 mL phosphate buffered saline (PBS). After washing, 2-3 drops of pre-warmed trypsin-EDTA (0.25% trypsin, 1 mM EDTA; Gibco BRL) was added to each well and the plate was incubated at 37° C. until the cells had detached from the plate. Trypsin was inactivated by the addition of 1.5 mL of cold media; The samples were transferred to 6 mL polystyrene tubes (Becton-Dickenson, San Jose, Calif., USA) and centrifuged at 2000 rpm for 5 min (Beckman GS-6R, rotor GH3.8). Cells were fixed and permeabilized by incubation for 10 min in 70% methanol (pre-chilled to −70° C.). Samples were then centrifuged at 2000 rpm for 5 min and the cells were incubated in 0.5 mL of 150 μg/mL propidium iodide (Molecular Probes, Eugene, Oreg.) in PBS for 30 minutes on ice in the dark prior to analysis by flow cytometry. 5,000 cells were analyzed in the FL2 channel (λemission=585+/−21 nm) of a FACSort flow cytometer (Becton-Dickinson, San Jose, Calif.) equipped with an Ar- ion laser (λexcitation=488 nm)

SK-OV-3 cells [5] = test: Uptake of YOYO-1 labeled plasmid lipoplexes by flow cytometry; type: cell-based, human; conditions: aphidicolin 5 μg/mL 16 hr; vs control cells
Experimental: as §1
For the plasmid DNA uptake experiments, the method previously described (Zabner, et al., J. Biol. Chem., 270:18997-19007 (1995); Tseng, et al., Biotechnol. Bioeng., 50:548-554 (1996)) using fluorescently labeled DNA and flow cytometry was used with the following modifications. Plasmid DNA was fluorescently labeled by incubation with YOYO-1 iodide (Molecular Probes, Eugene, Oreg.) at a dye:basepair ratio of […] for 10 minutes at 4° C. The sample was then dialyzed twice against autoclaved deionized water.
Lipoplexes were prepared using YOYO-1 labeled DNA and incubated with cells. […] Fluorescence was measured in the FL1 channel (λemission=530+/−15 nm) of a FACSort flow cytometer (Becton-Dickinson, San Jose, Calif.) equipped with an Ar- ion laser (λexcitation=488 nm). Data was collected from 10,000 cells and analyzed for fluorescence using CellQuest software.

HeLa-luc cells = test: Luciferase gene expression in stably transfected HeLa-luc cells; type: cell-based, human; conditions: HeLa-luc, 0, 6 and 24 hours after arrest vs untreated control cells
Experimental: SK-OV-3 cells human ovarian tumor cells, ATCC) were cultured in RPMI 1640 media (StemCell Technologies, Vancouver, B.C.) supplemented with 10% fetal bovine serum (Intergen). HeLa-luc cells were stably transfected with a luciferase reporter plasmid and cultured in Dulbecco's modified Eagle medium (StemCell Technologies, Vancouver, B.C.) supplemented with 10% fetal bovine serum and 400 μg/mL Geneticin (Gibco BRL).
as §1
(§2) Luciferase assays were performed using the Luciferase Assay System kit (Promega, Madison, Wis.) according to the manufacturer's protocol. […] A standard curve was determined by assaying 20 μL of serial dilutions of a 1 mg/mL luciferase standard (Boehringer Mannheim). […] Absorbance was monitored at 570 nm (Dynatech MR5000 plate reader) and protein content calculated using a standard curve of varying concentrations of BSA.

SK-OV-3 cells [6] = test: Semliki Forest Virus (SFV-luc) mediated luciferase gene expression; type: cell-based, human; conditions: SFV-luc m.o.i. 0.5
Experimental: as §1
Luciferase cDNA was cloned into the multiple cloning site of pSFV 1-3. Recombinant virus encoding luciferase was prepared according to the protocol described by Liljestrom and Garoff (Maniatis, et al., Molecular Cloning, Cold Spring Harbor, N.Y., 1981, pp. 93-94). Prior to infection of SK-OV-3 cells, virus particles were activated in 0.5 mg/mL chymotrypsin for 30 minutes at room temperature. Chymotrypsin was inactivated by the addition of aprotinin to a final concentration of 0.67 mg/mL. […]
as §2

[7] = (+/−) cultures, 1 hr exposure, either formulation

| SMILES | expression of plasmid delivered directly to tumor cells after drug treatment (tumor cells) | tumor growth (MCA 207 tumor [1]) | tumor growth vs HSV-TK/ganciclovir system alone (MCA 207 tumor [2]) | time after removal of aphidicolin at which luciferase expression begins to increase (SK-OV-3 cells [3]; [7]) | time after removal of aphidicolin of maximum luciferase expression (SK-OV-3 cells [3]; [7]) [h] | increase in luciferase expression, (+/−) vs (−/−) culture (SK-OV-3 cells [3]; SPLPs, 1 hr exposure) [fold] | difference in luciferase activity between (−/−) and (+/+) cultures (SK-OV-3 cells [3]; SPLPs) [fold] | increase in luciferase expression, (+/−) vs (−/−) culture (SK-OV-3 cells [3]; lipoplexes, 1 hr exposure) [fold] | decrease in luciferase gene expression, (+/+) culture (SK-OV-3 cells [3]; lipoplexes, 24 hrs continuous exposure, continued aphidicolin) [fold] | luciferase expression of (+/−) cultures vs (−/−) control (SK-OV-3 cells [3]; lipoplexes, 24 hrs, aphidicolin removed) | difference in luciferase activity between (−/−) and (+/+) cultures (SK-OV-3 cells [3]; lipoplexes) | cells in the G2/M phase, (+/−) culture (SK-OV-3 cells [4]; 16 hrs after removal of aphidicolin block) | cells progressed into the G1 phase after mitotic division, (+/−) culture (SK-OV-3 cells [4]; 22 hrs after removal of aphidicolin block) [%] | cells remaining arrested in the G1 phase, (+/+) culture (SK-OV-3 cells [4]; end of the 24 incubation with lipoplexes, continued aphidicolin) | cells remaining arrested in the G1 phase, (+/+) cultures (SK-OV-3 cells [4]; throughout kinetics experiments (to 26 hrs) with lipoplexes or SPLPs) [%] | effect of cell cycle arrest on internalization of lipoplexes (SK-OV-3 cells [5]) | effect on level of luciferase gene expression (HeLa-luc cells) | pattern of SFV-luc gene expression between (−/−), (+/−) and (+/+) cultures (SK-OV-3 cells [6]) |
| --- | --- | --- | --- | --- | --- | --- | --- | --- | --- | --- | --- | --- | --- | --- | --- | --- | --- | --- |
| N.N.[Cl][Pt][Cl] [Cisplatin] | improved expression | – | – | – | – | – | – | – | – | – | – | – | – | – | – | – | – | – |
| CC[C@]1(O)C[C@H]2CN(CCc3c([nH]c4ccccc34)[C@@](C(=O)OC)(c3cc4c(cc3OC)N(C=O)[C@H]3[C@@](O)(C(=O)OC)[C@H](OC(C)=O)[C@]5(CC)C=CCN6CC[C@]43[C@@H]65)C2)C1 [Vincristine] | not found to be effective | Tumor growth is inhibited and regression in tumor size is visible | inhibits growth of tumors and promotes tumor regression to a significantly greater degree | – | – | – | – | – | – | – | – | – | – | – | – | – | – | – |
| C[C@@]1(CO)[C@H](O)CC[C@@]2(C)[C@H]1CC[C@H]1C[C@@H]3C[C@@]12CC[C@]3(O)CO [aphidicolin] | – | – | – | approximately 10 hours | 12 | 8 | 20 | 3 | 20 | did not differ significantly | approximately 40 fold | approximately 85% | ~45 | approximately 95% | 95 | does not affect the internalization of lipoplexes | did not significantly affect | no significant difference |

— patent publication US6841538B1, “Combination therapy using nucleic acids and radio therapy” (priority 1998, dated 2005)
